Assay results reported in ChEMBL document CHEMBL1153574, “Novel topoisomerase I-targeting antitumor agents synthesized from the N,N,N-trimethylammonium derivative of ARC-111, 5H-2,3-dimethoxy-8,9-methylenedioxy-5-[(2-N,N,N-trimethylammonium)ethyl]dibenzo[c,h][1,6]naphthyridin-6-one iodide” (Eur J Med Chem, 2009).

What was measured:
[1] = biological target: T1, DNA topoisomerase 1 (Homo sapiens) (UniProt P11387); experiment: Effect on human topoisomerase 1 expressed in Sf9 insect cells assessed as effective concentration required for 10% cleavage of plasmid DNA relative to topotecan
T1 sequence (whole entry): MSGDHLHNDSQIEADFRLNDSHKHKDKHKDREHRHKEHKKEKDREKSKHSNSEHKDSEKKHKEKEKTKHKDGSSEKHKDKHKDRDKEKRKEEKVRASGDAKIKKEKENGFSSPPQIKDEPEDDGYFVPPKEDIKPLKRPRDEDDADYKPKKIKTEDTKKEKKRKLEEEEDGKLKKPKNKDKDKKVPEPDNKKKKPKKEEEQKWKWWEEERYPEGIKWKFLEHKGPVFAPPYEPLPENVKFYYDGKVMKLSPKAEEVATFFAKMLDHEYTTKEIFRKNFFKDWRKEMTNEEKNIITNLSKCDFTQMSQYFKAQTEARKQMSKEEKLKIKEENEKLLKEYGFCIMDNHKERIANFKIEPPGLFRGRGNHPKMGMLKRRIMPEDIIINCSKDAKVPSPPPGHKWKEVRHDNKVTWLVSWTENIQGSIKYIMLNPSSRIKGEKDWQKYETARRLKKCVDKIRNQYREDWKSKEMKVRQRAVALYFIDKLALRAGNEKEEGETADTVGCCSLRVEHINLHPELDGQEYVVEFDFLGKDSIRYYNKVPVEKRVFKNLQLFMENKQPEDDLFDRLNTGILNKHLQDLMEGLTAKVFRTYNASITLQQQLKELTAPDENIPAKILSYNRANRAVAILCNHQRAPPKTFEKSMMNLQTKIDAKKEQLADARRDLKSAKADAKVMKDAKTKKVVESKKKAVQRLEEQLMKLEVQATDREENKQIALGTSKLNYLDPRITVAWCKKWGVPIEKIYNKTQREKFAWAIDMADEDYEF

[2] = Cytotoxicity against human KB3-1 cells after 4 days after MTT assay; format: functional, cell-based; conditions: KB 3-1, 96 h
[3] = Cytotoxicity against human CPT-K5 cells after 4 days by MTT assay; format: functional, cell-based; conditions: CPT-K5, 96 h
[4] = Cytotoxicity against multidrug resistant human KBH5.0 cells overexpressing BCRP after 4 days by MTT assay; format: functional, cell-based; conditions: KBH5.0 cell, 96 h
[5] = system: P388; experiment: Cytotoxicity against mouse P388 cells after 4 days by MTT assay; format: functional, cell-based; conditions: P388, 96 h
[6] = Cytotoxicity against multidrug resistant human KBV1 cells overexpressing MDR1 after 4 days by MTT assay; format: functional, cell-based; conditions: KB-V1, 96 h
[7] = Cytotoxicity against human RPMI8402 cells after 4 days by MTT assay; format: functional, cell-based; conditions: RPMI 8402, 96 h
[8] = Cytotoxicity against mouse P388/CPT45 cells after 4 days by MTT assay; format: functional, cell-based; conditions: P388CPT45, 96 h

CC[C@@]1(O)C(=O)OCc2c1cc1n(c2=O)Cc2cc3ccccc3nc2-1
Activity [1]: 0.2

COc1cc2c(=O)n(CCN(C)CCO)c3c4cc5c(cc4ncc3c2cc1OC)OCO5
Activity [1]: 0.04 | IC50 [2]: 6 nM | IC50 [3]: 580 nM | IC50 [4]: 50 nM | IC50 [5]: 12 nM | IC50 [6]: 60 nM | IC50 [7]: 15 nM | IC50 [8]: 330 nM

COc1cc2c(=O)n(CCN(CCO)CCO)c3c4cc5c(cc4ncc3c2cc1OC)OCO5
Activity [1]: 0.48 | IC50 [2]: 23 nM | IC50 [3]: 320 nM | IC50 [4]: 280 nM | IC50 [5]: 30 nM | IC50 [6]: 350 nM | IC50 [7]: 40 nM | IC50 [8]: 250 nM

COc1cc2c(=O)n(CCOC(=O)CN(C)C)c3c4cc5c(cc4ncc3c2cc1OC)OCO5
Activity [1]: 0.3 | IC50 [2]: 32 nM | IC50 [3]: 4600 nM | IC50 [4]: 50 nM | IC50 [5]: 27 nM | IC50 [6]: 35 nM | IC50 [7]: 30 nM | IC50 [8]: 390 nM

COc1cc2c(=O)n(CCNCCN(C)C)c3c4cc5c(cc4ncc3c2cc1OC)OCO5
Activity [1]: 6.4 | IC50 [2]: 60 nM | IC50 [3]: 2600 nM | IC50 [4]: 750 nM | IC50 [5]: 75 nM | IC50 [6]: 3400 nM | IC50 [7]: 140 nM | IC50 [8]: 340 nM

COc1cc2c(=O)n(CCO)c3c4cc5c(cc4ncc3c2cc1OC)OCO5
Activity [1]: 4.7 | IC50 [2]: 27 nM | IC50 [3]: > 10000 nM | IC50 [4]: 40 nM | IC50 [5]: 30 nM | IC50 [6]: 40 nM | IC50 [7]: 30 nM | IC50 [8]: 900 nM

COc1cc2c(=O)n(CCNC(CO)(CO)CO)c3c4cc5c(cc4ncc3c2cc1OC)OCO5
Activity [1]: 2 | IC50 [2]: 250 nM | IC50 [3]: 7000 nM | IC50 [4]: 1800 nM | IC50 [5]: 330 nM | IC50 [6]: 1800 nM | IC50 [7]: 330 nM | IC50 [8]: 3500 nM

COc1cc2c(=O)n(CCn3ccnc3)c3c4cc5c(cc4ncc3c2cc1OC)OCO5
Activity [1]: 2.3 | IC50 [2]: 150 nM | IC50 [3]: > 10000 nM | IC50 [4]: 580 nM | IC50 [5]: 200 nM | IC50 [6]: 1800 nM | IC50 [7]: 210 nM | IC50 [8]: > 10000 nM

COc1cc2c(=O)n(CCNC3CC3)c3c4cc5c(cc4ncc3c2cc1OC)OCO5
Activity [1]: 0.3 | IC50 [2]: 4 nM | IC50 [3]: 300 nM | IC50 [4]: 8 nM | IC50 [5]: 9 nM | IC50 [6]: 40 nM | IC50 [7]: 10 nM | IC50 [8]: 110 nM

COc1cc2c(=O)n(CCn3ccnn3)c3c4cc5c(cc4ncc3c2cc1OC)OCO5
Activity [1]: > 10 | IC50 [2]: 700 nM | IC50 [3]: > 10000 nM | IC50 [4]: 6000 nM | IC50 [5]: 4400 nM | IC50 [6]: 10000 nM | IC50 [7]: 3500 nM | IC50 [8]: > 10000 nM

COc1cc2c(=O)n(CCN(C)CCN(C)C)c3c4cc5c(cc4ncc3c2cc1OC)OCO5
Activity [1]: 0.7 | IC50 [2]: 50 nM | IC50 [3]: 2200 nM | IC50 [4]: 210 nM | IC50 [5]: 35 nM | IC50 [6]: 600 nM | IC50 [7]: 45 nM | IC50 [8]: 70 nM

COc1cc2c(=O)n(CCNC(CO)CO)c3c4cc5c(cc4ncc3c2cc1OC)OCO5
Activity [1]: 0.2 | IC50 [2]: 26 nM | IC50 [3]: > 10000 nM | IC50 [4]: 750 nM | IC50 [5]: 80 nM | IC50 [6]: 2000 nM | IC50 [7]: 54 nM

COc1cc2c(=O)n(CCN(C)C)c3c4cc5c(cc4ncc3c2cc1OC)OCO5
Activity [1]: 0.3 | IC50 [2]: 5 nM | IC50 [6]: 5 nM

CCN(CC)CCNCCn1c(=O)c2cc(OC)c(OC)cc2c2cnc3cc4c(cc3c21)OCO4
Activity [1]: 5.2 | IC50 [2]: 40 nM | IC50 [3]: 9000 nM | IC50 [4]: 300 nM | IC50 [5]: 230 nM | IC50 [6]: 1200 nM | IC50 [7]: 150 nM | IC50 [8]: 350 nM
